{"source": "paper PMC10352257", "about": "“In vivo effects of the alpha-synuclein misfolding inhibitor minzasolmin supports clinical development in Parkinson’s disease” (NPJ Parkinson's Disease, 2023)", "key": {"[1]": {"tested_on": "dopamine transporter (DAT)", "assay": "Immunolabeling of striatal dopamine transporter (DAT), 3-month study", "type": "in vivo, mouse", "settings": "for DAT immunolabeling in dorsal striatum, mean: 3 months", "source_text": "(§1) A transgenic mouse model of Parkinson’s disease overexpressing human wild-type ASYN under the murine Thy-1 promoter on a mixed C57Bl/6 background was used in the present studies (commonly referred to Line 61)[49]. The Line 61 transgenic mouse model of Parkinson’s disease develops extensive accumulation of ASYN in areas relevant to Parkinson’s disease[49]–[51], neurodegeneration (as evidenced by loss of tyrosine hydroxylase[52],[53] and dopamine transporter immunoreactivity[18] in the striatum), inflammation, and both motor and non-motor functional deficits. Multiple cohorts of mice were transferred from the University of California, San Diego to a Neuropore-funded AAALAC-accredited vivarium facility per a laboratory service agreement between Neuropore Therapies, Inc. and the laboratory of Dr. Eliezer Masliah under institutional animal care and use committee (IACUC) Protocol S02221. All in vivo testing was conducted by Neuropore personnel under Explora Biosciences animal care and use protocol (ACUP) number E15-016-2. Three-month-old male transgenic and age-matched non-transgenic littermate control mice were used and housed up to 5 per cage. Animals received free access to food and water prior to the experiment. The vivarium ambient room temperature was monitored daily and kept within a range of 68–72 degrees Fahrenheit. Animals were kept on a 12:12 diurnal light cycle, with lights on at 0600.\n(§2) Minzasolmin was dissolved in a vehicle solution consisting of 40% Captisol (CyDex Pharmaceuticals, Inc.; Kansas, USA) in sterile water and administered at a volume of 0.1 ml/20 g of body weight. Animals received a Monday–Friday daily intraperitoneal injection of vehicle, or 1 or 5 mg/kg minzasolmin for approximately 90 days. Animals received treatment up to and including a final injection 1 h prior to euthanasia. All study solutions were blind coded and experimenters were blinded to genotype and treatment group assignments for the duration of the study, ex vivo evaluations (i.e., neuropathology sample processing and imaging, videotape scoring) and through penultimate data analyses (i.e., data quality control with documented exclusions prior to unblinding; unblinding required for a priori pairwise comparisons).\nAll subjects were euthanized within 1 h of the last treatment and brain and blood were collected. Tissue processing and imaging methods were conducted as described previously[17],[18],[52] and performed under a lab service agreement between UCSD and Neuropore Therapies. All samples were blind coded to genotype and treatment group throughout immune-histological processing and imaging. The right hemibrain was post-fixed in phosphate-buffered 4% paraformaldehyde (pH 7.4) at 4 °C for 48 and then serially sectioned into […] thick […] sections using a vibratome. Sections were free-floated and incubated overnight at 4 °C with primary antibodies. To confirm the specificity of primary antibodies, control experiments were performed in which sections were incubated overnight in the absence of primary antibody, pre-immune serum, or primary antibody pre-adsorbed for 48 h with 20-fold excess of the corresponding peptide. Tissue collection, processing, and imaging methods were conducted as described previously. […] Immunolabeling was evaluated as a corrected optical density across a field of view. […]"}, "[2]": {"tested_on": "total ASYN", "assay": "Immunohistochemical evaluation of total ASYN in brain sections, 3-month study", "type": "in vivo, mouse", "settings": "for change in total ASYN immunolabeling vs vehicle-treated Line 61 transgenic mice: hippocampus and striatum (P < 0.0001); for total ASYN immunolabeling, mean: Line 61 tg, 3 months", "source_text": "as §1, §2\n(§3) All subjects were euthanized within 1 h of the last treatment and brain and blood were collected. Tissue processing and imaging methods were conducted as described previously[17],[18],[52] and performed under a lab service agreement between UCSD and Neuropore Therapies. All samples were blind coded to genotype and treatment group throughout immune-histological processing and imaging. The right hemibrain was post-fixed in phosphate-buffered 4% paraformaldehyde (pH 7.4) at 4 °C for 48 and then serially sectioned into […] thick […] sections using a vibratome. Sections were free-floated and incubated overnight at 4 °C with primary antibodies. To confirm the specificity of primary antibodies, control experiments were performed in which sections were incubated overnight in the absence of primary antibody, pre-immune serum, or primary antibody pre-adsorbed for 48 h with 20-fold excess of the corresponding peptide. Tissue collection, processing, and imaging methods were conducted as described previously. Briefly, the right hemibrain was post-fixed in phosphate-buffered 4% paraformaldehyde (pH 7.4) at 4 °C for 48 h, and then serially sectioned into 40 µm thick coronal sections using a vibratome. Sections were free-floated and incubated overnight at 4 °C with primary antibodies. To confirm the specificity of primary antibodies, control experiments were performed in which sections were incubated overnight in the absence of primary antibody (data not shown). Immunolabeled sections were imaged with a Zeiss 63× (N.A. 1.4) objective on an Axiovert 35 microscope (Zeiss, Germany). Immunolabeling was evaluated as a corrected optical density across a field of view. […]"}, "[3]": {"tested_on": "proteinase K-resistant ASYN", "assay": "Immunohistochemical evaluation of proteinase K-resistant ASYN in brain sections, 3-month study", "type": "in vivo, mouse", "settings": "for change in proteinase K-resistant ASYN immunolabeling vs vehicle-treated transgenic mice: striatum (P < 0.0001); for proteinase K-resistant ASYN immunolabeling, mean: Line 61 tg, 3 months, adjusted P <0.0001", "source_text": "as §1, §2, §3"}, "[4]": {"tested_on": "GFAP", "assay": "Immunolabeling of glial fibrillary acidic protein (GFAP), 3-month study", "type": "in vivo, mouse", "settings": "for change in GFAP immunolabeling vs vehicle-treated Line 61 transgenic mice: cortex and hippocampus (P < 0.0001); for GFAP immunolabeling, mean: 3 months, adjusted P <0.0001", "source_text": "as §1, §2, §3"}, "[5]": {"assay": "Bioanalysis of compound levels in plasma and brain after long-term treatment", "type": "in vivo", "settings": "mouse, ip, Line 61 transgenic mice, 1 h post final dose, mean ± S.E.M.", "procedure": "as §2\nAll subjects were euthanized within 1 h of the last treatment and brain and blood were collected. Tissue processing and imaging methods were conducted as described previously[17],[18],[52] and performed under a lab service agreement between UCSD and Neuropore Therapies. All samples were blind coded to genotype and treatment group throughout immune-histological processing and imaging. The right hemibrain was post-fixed in phosphate-buffered 4% paraformaldehyde (pH 7.4) at 4 °C for 48 and then serially sectioned into […] thick sagittal sections using a vibratome. Sections were free-floated and incubated overnight at 4 °C with primary antibodies. To confirm the specificity of primary antibodies, control experiments were performed in which sections were incubated overnight in the absence of primary antibody, pre-immune serum, or primary antibody pre-adsorbed for 48 h with 20-fold excess of the corresponding peptide. Tissue collection, processing, and imaging methods were conducted as described previously. Briefly, the right hemibrain was post-fixed in phosphate-buffered 4% paraformaldehyde (pH 7.4) at 4 °C for 48 h, and then serially sectioned into 40 µm thick coronal sections using a vibratome. Sections were free-floated and incubated overnight at 4 °C with primary antibodies. To confirm the specificity of primary antibodies, control experiments were performed in which sections were incubated overnight in the absence of primary antibody (data not shown). Immunolabeled sections were imaged with a Zeiss 63× (N.A. 1.4) objective on an Axiovert 35 microscope (Zeiss, Germany). Immunolabeling was evaluated as a corrected optical density across a field of view. Summary tables of statistics for each measure are presented in Supplementary Tables 1–5.\nAnalysis of minzasolmin by HPLC-MS/MS in plasma and brain homogenate study subject samples was conducted by PRA Health Sciences (Lenexa, KS, USA). Group means were obtained using Graph Pad Prism v. […]"}}, "note": "Entries after “also recorded” stand apart in the source; their conditions may differ. Read-outs that look alike come from different tables or passages of the source.", "data": [{"compound": "CCCC[C@H](Cc1c[nH]c2ccccc12)NC(=O)c1cnc(N2CCN(C)CC2)s1", "note": "[minzasolmin]", "values": [{"measurement": "change in striatal DAT immunolabeling vs vehicle-treated ASYN transgenic controls", "setting": "[1]; 1 mg/kg, P < 0.05", "value": "statistically significant increases; also recorded: statistically significant normalizations"}, {"measurement": "change in striatal DAT immunolabeling vs vehicle-treated ASYN transgenic controls", "setting": "[1]; 5 mg/kg, P < 0.0001", "value": "statistically significant increases; also recorded: statistically significant normalizations"}, {"measurement": "DAT immunolabeling in dorsal striatum, mean", "setting": "[1]; Line 61 tg/1 mg/kg (first group of that name), Line 61 tg/Vehicle 211.2, Non-tg/Vehicle 292.1, adjusted P 0.0117", "value": 255.3}, {"measurement": "DAT immunolabeling in dorsal striatum, mean", "setting": "[1]; Line 61 tg/1 mg/kg as printed (second group of that name), Line 61 tg/Vehicle 211.2, adjusted P <0.0001", "value": 280.1}, {"measurement": "dose effect on striatal DAT levels, 5 mg/kg compared to 1 mg/kg (towards a greater increase)", "setting": "[1]; P = 0.0754, unpaired two tailed t test", "value": "statistical trend"}, {"measurement": "change in total ASYN immunolabeling vs vehicle-treated Line 61 transgenic mice", "setting": "[2]; 1 mg/kg, cortex (P < 0.05)", "value": "statistically significant decreases; also recorded: statistically significant reductions"}, {"measurement": "change in total ASYN immunolabeling vs vehicle-treated Line 61 transgenic mice", "setting": "[2]; 5 mg/kg, cortex", "value": "statistically significant decreases; also recorded: statistically significant reductions"}, {"measurement": "effect of dose on total ASYN, 5 mg/kg compared to 1 mg/kg", "setting": "[2]; cortex (P < 0.05) and hippocampus (P < 0.01), unpaired two tailed t tests", "value": "greater reductions"}, {"measurement": "total ASYN immunolabeling, mean", "setting": "[2]; cortex, 1 mg/kg, corrected optical density, Line 61 tg/Vehicle 352.8, adjusted P 0.0148", "value": 282.1}, {"measurement": "total ASYN immunolabeling, mean", "setting": "[2]; cortex, 5 mg/kg, Line 61 tg/Vehicle 352.8, adjusted P <0.0001", "value": 232.8}, {"measurement": "total ASYN immunolabeling, mean", "setting": "[2]; hippocampus, 1 mg/kg, Line 61 tg/Vehicle 392.9, adjusted P <0.0001", "value": 286.7}, {"measurement": "total ASYN immunolabeling, mean", "setting": "[2]; hippocampus, 5 mg/kg, Line 61 tg/Vehicle 392.9, adjusted P <0.0001", "value": 229.7}, {"measurement": "effect of dose on total ASYN, 1 vs. 5 mg/kg", "setting": "[2]; striatum", "value": "no statistically significant effect"}, {"measurement": "total ASYN immunolabeling, mean", "setting": "[2]; striatum, 1 mg/kg, Line 61 tg/Vehicle 365.3, adjusted P <0.0001", "value": 265.4}, {"measurement": "total ASYN immunolabeling, mean", "setting": "[2]; striatum, 5 mg/kg, Line 61 tg/Vehicle 365.3, adjusted P <0.0001", "value": 245.5}, {"measurement": "change in proteinase K-resistant ASYN immunolabeling vs vehicle-treated transgenic mice", "setting": "[3]; 1 mg/kg, cortex, hippocampus", "value": "statistically significant reductions; also recorded: statistically significant decreases"}, {"measurement": "change in proteinase K-resistant ASYN immunolabeling vs vehicle-treated transgenic mice", "setting": "[3]; 5 mg/kg, cortex, hippocampus", "value": "statistically significant reductions; also recorded: statistically significant decreases"}, {"measurement": "effect of dose on proteinase K-resistant ASYN, 1 vs. 5 mg/kg", "setting": "[3]; any examined region", "value": "no statistically significant effects"}, {"measurement": "proteinase K-resistant ASYN immunolabeling, mean", "setting": "[3]; cortex, 1 mg/kg, Line 61 tg/Vehicle 242.5", "value": 180.6}, {"measurement": "proteinase K-resistant ASYN immunolabeling, mean", "setting": "[3]; cortex, 5 mg/kg, Line 61 tg/Vehicle 242.5", "value": 187.3}, {"measurement": "proteinase K-resistant ASYN immunolabeling, mean", "setting": "[3]; hippocampus, 1 mg/kg, Line 61 tg/Vehicle 270.1", "value": 176.6}, {"measurement": "proteinase K-resistant ASYN immunolabeling, mean", "setting": "[3]; hippocampus, 5 mg/kg, Line 61 tg/Vehicle 270.1", "value": 178.3}, {"measurement": "proteinase K-resistant ASYN immunolabeling, mean", "setting": "[3]; striatum, 1 mg/kg, Line 61 tg/Vehicle 266.7", "value": 176.1}, {"measurement": "proteinase K-resistant ASYN immunolabeling, mean", "setting": "[3]; striatum, 5 mg/kg, Line 61 tg/Vehicle 266.7", "value": 182.2}, {"measurement": "change in GFAP immunolabeling vs vehicle-treated Line 61 transgenic mice", "setting": "[4]; 1 mg/kg", "value": "decreased"}, {"measurement": "change in GFAP immunolabeling vs vehicle-treated Line 61 transgenic mice", "setting": "[4]; 5 mg/kg", "value": "decreased"}, {"measurement": "effect of dose on GFAP levels, 1 vs. 5 mg/kg", "setting": "[4]; cortex and hippocampus", "value": "no statistically significant effect"}, {"measurement": "GFAP immunolabeling, mean", "setting": "[4]; cortex, Line 61 tg/1 mg/kg (first group of that name), Line 61 tg/Vehicle 223.1", "value": 155.9}, {"measurement": "GFAP immunolabeling, mean", "setting": "[4]; cortex, Line 61 tg/1 mg/kg as printed (second group of that name), Line 61 tg/Vehicle 223.1", "value": 169.3}, {"measurement": "GFAP immunolabeling, mean", "setting": "[4]; hippocampus, Line 61 tg/1 mg/kg (first group of that name), Line 61 tg/Vehicle 350.8", "value": 271.6}, {"measurement": "GFAP immunolabeling, mean", "setting": "[4]; hippocampus, Line 61 tg/1 mg/kg as printed (second group of that name), Line 61 tg/Vehicle 350.8", "value": 289.7}, {"measurement": "concentration at 1 h", "setting": "[5]; brain, 1 mg/kg i.p. daily about 90 days, read-out: [minzasolmin] Brain", "value": "12.1 ± 1.5", "unit": "ng/g"}, {"measurement": "concentration at 1 h", "setting": "[5]; brain, 5 mg/kg i.p. daily about 90 days, read-out: [minzasolmin] Brain", "value": "69.5 ± 4.7", "unit": "ng/g"}, {"measurement": "concentration at 1 h", "setting": "[5]; plasma, 1 mg/kg i.p. daily about 90 days, read-out: [minzasolmin] Plasma", "value": "72.3 ± 7.9", "unit": "ng/mL"}, {"measurement": "concentration at 1 h", "setting": "[5]; plasma, 5 mg/kg i.p. daily about 90 days, read-out: [minzasolmin] Plasma", "value": "357 ± 16.8", "unit": "ng/mL"}]}]}
